Data on 16 compounds can be found in patent publication US5411984A, “Water soluble analogs and prodrugs of taxol” (Virginia Tech Intellectual Properties, Inc., priority 1992, dated 1995).

One series deals with M109 lung carcinoma. As to the kind of experiment: In vivo activity against M109 lung carcinoma implanted intraperitoneally (mice M109 model), median survival. Further details: species or system Balb/o x DBA/2 F1 hybrid mice. The method, then:
Balb/o x DBA/2 F1 hybrid mice were implanted intraperitoneally, as described by William Rose in "Evaluation of Madison 109 Lung Carcinoma as a Model for Screening Antitumor Drugs, "Cancer Treatment Reports, 65 No. 3-4 (1981), with 0.5 mL of a 2% (w/v) brei of M109 lung carcinoma (the mice M109 model).
Mice were treated with a compound under study by receiving intraperitoneal injections of various doses on either Day 1, 5, and 9 post-tumor implant or Days 5 and 8 post-implant. Mice were followed daily for survival until approximately 75-90 days post-tumor implant. One group of mice per experiment remained untreated and served as the control group.
Median survival times of compound-treated (T) mice were compared to the median survival time of the control (C) mice. The ratio of the two values for each compound-treated group of mice was multiplied by 100 and expressed as a percentage (i.e.% T/C) in Table 2 for certain representative compounds.

For series [1] the following is noted: cited from earlier work.
Another series deals with B16 melanoma cells. As to conditions: compared with taxol; cited from earlier work.
The conditions of series [2]: cited from earlier work. The source holds these as a separate data set.
The conditions of series [3]: cited from earlier work. This is another data set of the same source.
Series [4] is described as follows: Stability in mildly basic aqueous solution. In kind it is physicochemical.
The nature of series [5]: Stability in pH 5 buffer / mildly acidic aqueous solution (HPLC or TLC, onset of cloudiness). The series is classed as physicochemical. As to conditions: room temperature. The method, then:
**Stabilities were determined in pH 5 buffer solution by one of the two
methods indicated below.
(a) 9.5 mg of sample was dissolved in 0.2 ml of EtOH and 0.2 ml of pH 5
buffer solution and let stand at room temperature. The progress of
decomposition was checked by HPLC or TLC and observation of the onset of
(b) 0.5 mg of sample was dissolved in 0.1 ml of EtOH and 0.9 ml of pH 5
buffer solution, the other conditions were the same as in (a) above. All
samples were stable under these conditions for at least 24 hours. No
hydrolysis was detectable by HPLC or TLC during this time period.

Series [6] is described as follows: Relative solubility by the 1-octanol and water partition method (UV absorption at 228 nm), taxol = 1. The method, then: In separate experiments, taxol derivative 4 and 2'-succinyl taxol (R=NaO2 CCH2 CH2 CO2) were dissolved in a mildly basic aqueous solution.
*Solubilities were determined by using the 1octanol and water partition
method.Sample concentrations in water were determined by UV absorptions a […]

In the next series the test system is tubulin. Conditions: cited from earlier work.
The mark [7] stands for this setting: method (b): 0.5 mg in 0.1 ml EtOH and 0.9 ml pH 5 buffer.
[8] abbreviates: method (a): 9.5 mg in 0.2 ml EtOH and 0.2 ml pH 5 buffer.

Where a name gives a salt, the structure may show the parent alone.

Take “2'-(4-benzyloxocarbonylbensoyl -7-(4-carboxybensoyl)taxol [Compound 17]”: the T/C (usually the ratio of treated to control) is given as 97% with M109 lung carcinoma (Q03Dx2;5, ip/ip, dose 13); 100% in the series on M109 lung carcinoma (Q03Dx2;5, ip/ip, dose 26); 109% in the series on M109 lung carcinoma (Q03Dx2;5, ip/ip, dose 52).

`CC(=O)O[C@H]1C(=O)[C@]2(C)[C@@H](OC(C)=O)C[C@H]3OC[C@@]3(OC(C)=O)[C@H]2[C@H](OC(=O)c2ccccc2)[C@]2(O)C[C@H](OC(=O)[C@H](OC(C)=O)[C@@H](NC(=O)c3ccccc3)c3ccccc3)C(C)=C1C2(C)C` [2',7-diacetyltaxol]: the “hydrolysis of acyl substituents under in vivo conditions” value in series [1] is reported as “readily hydrolyzed”.

Take `CC(=O)O[C@H]1C(=O)[C@@]2(C)[C@H]([C@H](OC(=O)c3ccccc3)[C@]3(O)C[C@H](OC(=O)[C@H](OC(=O)CN(C)C)[C@@H](NC(=O)c4ccccc4)c4ccccc4)C(C)=C1C3(C)C)[C@]1(OC(C)=O)CO[C@@H]1C[C@@H]2O` [2'-(N,N-dimethylglycyl) taxol]: the “inhibition of proliferation of B16 melanoma cells relative to taxol” value in the series with B16 melanoma cells was “to an extent similar to that of taxol”.

As to `CC(=O)O[C@H]1C(=O)[C@@]2(C)[C@H]([C@H](OC(=O)c3ccccc3)[C@]3(O)C[C@H](OC(=O)[C@H](OC(=O)CCC(=O)NCCCS(=O)(=O)O)[C@@H](NC(=O)c4ccccc4)c4ccccc4)C(C)=C1C3(C)C)[C@]1(OC(C)=O)CO[C@@H]1C[C@@H]2O` [2'-([4-((3-sulfopropyl)amino-1,4-dioxobutyl]oxy)taxolsodium salt], the “antineoplastic activity in mice” value in series [2] was “active as antineoplastic agents in mice”. Also, the “aqueous solubility” value in series [3] is reported as “improved water-solubility as compared with taxol”.

For `CC(=O)O[C@H]1C(=O)[C@@]2(C)[C@H]([C@H](OC(=O)c3ccccc3)[C@]3(O)C[C@H](OC(=O)[C@H](OC(=O)CCN(C)C)[C@@H](NC(=O)c4ccccc4)c4ccccc4)C(C)=C1C3(C)C)[C@]1(OC(C)=O)CO[C@@H]1C[C@@H]2O` [2'-[3-(N,N-dimethylamino)propionyl]taxol], the “inhibition of proliferation of B16 melanoma cells relative to taxol” value with B16 melanoma cells was “to an extent similar to that of taxol”.

Consider `CC(=O)O[C@H]1C(=O)[C@@]2(C)[C@H]([C@H](OC(=O)c3ccccc3)[C@]3(O)C[C@H](OC(=O)[C@H](OC(=O)CCC(=O)O)[C@@H](NC(=O)c4ccccc4)c4ccccc4)C(C)=C1C3(C)C)[C@]1(OC(C)=O)CO[C@@H]1C[C@@H]2O` [2'-succinyl taxol, 2'-succinyl taxol (R=NaO2 CCH2 CH2 CO2), reference compound], for which the “time until solution turned cloudy” value in series [4] was “less than 24 hours”. Also, the degraded at 24 h in series [4] (read-out: decomposed) was about 50%.

Consider `CC(=O)O[C@H]1C(=O)[C@@]2(C)[C@H]([C@H](OC(=O)c3ccccc3)[C@]3(O)C[C@H](OC(=O)[C@H](OC(=O)CCC(=O)NCCS(=O)(=O)O)[C@@H](NC(=O)c4ccccc4)c4ccccc4)C(C)=C1C3(C)C)[C@]1(OC(C)=O)CO[C@@H]1C[C@@H]2O` [--O2 CCH2 CH2 CONHCH2 --CH2 SO3 Na, 2'-([4-((2-sulfoethyl)amino)-1,4-dioxobutyl]oxy)taxol sodium salt], for which, in [5] (setting [7]), the “Stabilities at pH 5” value was over 24 h. Further, in series [2], the “antineoplastic activity in mice” value is “active as antineoplastic agents in mice”. For the same compound, the “aqueous solubility” value in series [3] is “improved water-solubility as compared with taxol”.

On to `CC(=O)O[C@H]1C(=O)[C@@]2(C)[C@H]([C@H](OC(=O)c3ccccc3)[C@]3(O)C[C@H](OC(=O)[C@H](OC(=O)CCS(=O)(=O)O)[C@@H](NC(=O)c4ccccc4)c4ccccc4)C(C)=C1C3(C)C)[C@]1(OC(C)=O)CO[C@@H]1C[C@@H]2O` [--O2 CCH2 CH2 SO3 Na, 2'-[(3-sulfo-1-oxopropyl)oxy]taxol sodium salt], for which the “Stabilities at pH 5” value in [5] (setting [7]) was over 24 h. Further, in series [2], the “antineoplastic activity in mice” value is reported as “active as antineoplastic agents in mice”. In addition, the “aqueous solubility” value in series [3] is “improved water-solubility as compared with taxol”.

On to `CC(=O)O[C@H]1C(=O)[C@@]2(C)[C@H]([C@H](OC(=O)c3ccccc3)[C@]3(O)C[C@H](OC(=O)[C@H](OC(=O)c4ccccc4C(=O)O)[C@@H](NC(=O)c4ccccc4)c4ccccc4)C(C)=C1C3(C)C)[C@]1(OC(C)=O)CO[C@@H]1C[C@@H]2O` [Compound 4, Taxol 2'-(sodium 1,2-benzenedicarboxylate)], for which the “Relative Solubility (p')” value in series [6] was determined as 3. The “Stabilities at pH 5” value in series [5] (setting [8]) is listed as over 24 h. In addition, in [4], the appearance of solution entry is “remained clear”. The “extent of decomposition” value in series [4] was “remained substantially intact”. The T/C in the series with M109 lung carcinoma (Q03Dx2;5, ip/ip, dose 15) is reported as 106%; with M109 lung carcinoma (Q03Dx2;5, ip/ip, dose 30), 135%; in the series on M109 lung carcinoma (Q03Dx2;5, ip/ip, dose 60), 141%.

On to `CC(=O)O[C@H]1C(=O)[C@@]2(C)[C@H]([C@H](OC(=O)c3ccccc3)[C@]3(O)C[C@H](OC(=O)[C@H](OC(=O)c4ccc(C(=O)O)cc4)[C@@H](NC(=O)c4ccccc4)c4ccccc4)C(C)=C1C3(C)C)[C@]1(OC(C)=O)CO[C@@H]1C[C@@H]2O` [Compound 7, Taxol 2'-(sodium 1,4-benzenedioarboxylate)], for which the “solubility relative to ortho benzoyl carboxylate derivative 4” value in [6] (compared with 4) is given as “twice as soluble”. In [5] (setting [8]), the “Stabilities at pH 5” value is reported as over 24 h. Further, the T/C with M109 lung carcinoma (Q03Dx2;5, ip/ip, dose 15) is listed as 112%; in the series with M109 lung carcinoma (Q03Dx2;5, ip/ip, dose 30), 141%; with M109 lung carcinoma (Q03Dx2;5, ip/ip, dose 60), 141%. In the series on M109 lung carcinoma (mice M109 model), the “in vivo biological activity relative to derivative 4” value is “superior in vivo biological activity”.

In the case of `CC(=O)O[C@H]1C(=O)[C@@]2(C)[C@H]([C@H](OC(=O)c3ccccc3)[C@]3(O)C[C@H](OC(=O)[C@H](OC(=O)c4cc(C(=O)O)cc(C(=O)O)c4)[C@@H](NC(=O)c4ccccc4)c4ccccc4)C(C)=C1C3(C)C)[C@]1(OC(C)=O)CO[C@@H]1C[C@@H]2O` [Compound 8c, Taxol 2'-(disodium 1,3,5-benzenetricarboxylate)], the “Stabilities at pH 5” value in series [5] (setting [7]) is over 24 h.

For `CC(=O)O[C@H]1C(=O)[C@@]2(C)[C@H]([C@H](OC(=O)c3ccccc3)[C@]3(O)C[C@H](OC(=O)[C@H](OC(=O)c4ccccc4S(=O)(=O)O)[C@@H](NC(=O)c4ccccc4)c4ccccc4)C(C)=C1C3(C)C)[C@]1(OC(C)=O)CO[C@@H]1C[C@@H]2O` [Compound 11, 2'-(2-Sulfobenzoyl) taxol, sodium salt], the “Relative Solubility (p')” value in series [6] was 96. Besides, in [5] (setting [7]), the “Stabilities at pH 5” value was over 24 h.

As to `CC(=O)O[C@H]1C(=O)[C@@]2(C)[C@H]([C@H](OC(=O)c3ccccc3)[C@]3(O)C[C@H](OC(=O)[C@H](OC(=O)c4ccc(S(=O)(=O)O)cc4)[C@@H](NC(=O)c4ccccc4)c4ccccc4)C(C)=C1C3(C)C)[C@]1(OC(C)=O)CO[C@@H]1C[C@@H]2O` [Compound 12, 2'-(4-sulfobenzoyl) taxol, sodium salt], in [6], the “Relative Solubility (p')” value amounted to 166. Besides, the “Stabilities at pH 5” value in series [5] (setting [7]) is on record as over 24 h.

Regarding `CCN(CC)CCNC(=O)c1ccc(C(=O)O[C@@H](C(=O)O[C@H]2C[C@@]3(O)[C@@H](OC(=O)c4ccccc4)[C@@H]4[C@]5(OC(C)=O)CO[C@@H]5C[C@H](O)[C@@]4(C)C(=O)[C@H](OC(C)=O)C(=C2C)C3(C)C)[C@@H](NC(=O)c2ccccc2)c2ccccc2)cc1` [Compound 13b, 2'-[4-([2-(N,N-diethylamino)ethyl]aminocarbonyl)benzoyl]taxol, hydrochloride], the “Stabilities at pH 5” value in [5] (setting [8]) was over 24 h. For the same compound, the T/C with M109 lung carcinoma (Z03Dx2;5, ip/ip, dose 50) is 118%; in the series on M109 lung carcinoma (Z03Dx2;5, ip/ip, dose 100), 118%; with M109 lung carcinoma (Z03Dx2;5, ip/ip, dose 200), 124%.

`CC(=O)O[C@H]1C(=O)[C@]2(C)[C@@H](OC(=O)c3ccccc3C(=O)O)C[C@H]3OC[C@@]3(OC(C)=O)[C@H]2[C@H](OC(=O)c2ccccc2)[C@]2(O)C[C@H](OC(=O)[C@H](OC(=O)c3ccccc3C(=O)O)[C@@H](NC(=O)c3ccccc3)c3ccccc3)C(C)=C1C2(C)C` [Compound 15, Taxol 2',7-di(sodium 1,2-benzenedicarboxylate)]: the T/C is listed as 100% in the series on M109 lung carcinoma (Z03Dx2;5, site/route not given, dose 15); 103% in the series with M109 lung carcinoma (Z03Dx2;5, site/route not given, dose 30); 106% in the series with M109 lung carcinoma (Z03Dx2;5, site/route not given, dose 60).

With `CC[C@]1(O)C[C@@H]2CN(CCc3c([nH]c4ccccc34)[C@@](C(=O)OC)(c3cc4c(cc3OC)N(C)[C@H]3[C@@](O)(C(=O)OC)[C@H](OC(C)=O)[C@]5(CC)C=CCN6CC[C@]43[C@@H]65)C2)C1` [vinblastine], the “effect on microtubule / tubulin polymer formation” value in the series with tubulin is given as “prevent microtubule formation”.
